Data as given in patent US12642870B2, “Compositions and methods for delivery of nucleic acids” (Poseida Therapeutics, Inc., priority 2020, dated 2026).

What was measured:
[1] = Particle size and PDI of hand-mixed mRNA or DNA LNPs; format: physicochemical; conditions: for PDI DNA / Particle Size (nm) DNA: hand-mixed DNA LNPs: compound/DOPE/Cholesterol/DMG-PEG2000 38/50/10.0/2.0, lipid:DNA 45:1; for PDI RNA / Particle Size (nm) RNA: hand-mixed mRNA LNPs: compound/DOPE/Cholesterol/DMG-PEG2000 41.44/45.85/10/2.7, lipid:RNA 40:1
Description: (§1) LNP compositions of the present disclosure comprising exemplary compounds of Formula (I) were prepared by combining various percentages of an exemplary compound of Formula (I), the phospholipid DOPE, the structural lipid cholesterol (Chol) and 1,2-dimyristoyl-sn-glycerol methoxypolyethylene glycol (DMG-PEG2000; Avanti Polar Lipids, Alabaster, Alabama, USA).
(§2) Individual 25 mg/ml stock solutions were prepared by solubilizing the lipids in 200-proof HPLC-grade ethanol and stock solutions were stored at −80° C. until formulated. At the time of formulation, the lipid stock solutions were briefly allowed to equilibrate to room temp and then placed on a hot plate maintained at a temperature range of 50-55° C.
A 1 mg/ml solution of the desired mRNA or DNA to be incorporated into the LNPs was added to 150 mM sodium acetate buffer (pH 5.2) to form a stock solution and kept on ice. The aqueous mRNA or DNA was then added to the lipids as shown in Table 25 or 26 and hand-mixed vigorously with a single channel pipettor.
(§3) The resultant mRNA or DNA LNP compositions were then transferred to a Repligen Float-A-Lyzer dialysis device—having a molecular weight cut off (MWCO) of 8-10 kDa (Spectrum Chemical Mfg. Corp, CA, USA) and processed by dialysis against phosphate buffered saline (PBS) (dialysate:dialysis buffer volume at least 1:200 v/v), pH 7.4 overnight at 4° C. (or alternatively room temperature for at least 4 hours), to remove the 25% ethanol and achieve a complete buffer exchange. In some experiments the LNPs were further concentrated by in an Amicon® Ultra-4 centrifugal filter unit, MWCO-30 kDa (Millipore Sigma, USA) spun at ˜4100×g in an ultracentrifuge. The mRNA and DNA LNPs were then stored at 4° C. until further use.
LNP compositions of the present disclosure comprising mRNA or DNA encoding firefly luciferase (hereafter “Flue”; TriLink) and COMPOUNDS 9-21 were prepared as described in Example 14 by combining one of COMPOUNDS 9-21, the phospholipid DOPE, the structural lipid cholesterol (Chol) and 1,2-dimyristoyl-sn-glycerol methoxypolyethylene glycol (DMG-PEG2000) in the percentages presented in Tables 27 and 28:
The physical characteristics of the resulting LNPs were analyzed.

[2] = Physical characterisation of mRNA-containing LNPs (DLS, NTA, zeta potential); format: physicochemical; conditions: Fluc mRNA LNPs: compound/DOPE/Cholesterol/DMG-PEG2000 41.44/45.85/10/2.7, lipid:RNA 40:1 (w/w)
Description: as §1, with “A series of ten multi-component LNP” for “LNP”, “was” for “were”
as §2
A 1 mg/mi solution of the desired mRNA to be incorporated into the LNPs was added to 150 mM sodium acetate buffer (pH 5.2) to form a stock solution and kept on ice. The lipid phase was mixed with the aqueous m RNA phase inside a microfluidic chip using a NanoAssemblr® instrument (Precision Nanosystems, Vancouver, BC, Canada) according to the manufacturer's instructions to form LNP compositions comprising encapsulated mRNAs.
as §3, with “mRNA” for “mRNA or DNA”, “mRNA” for “mRNA and DNA”
A series of multicomponent LNP compositions comprising one of COMPOUNDS 1-8 described in Example 1 and the mRNA encoding flue was prepared according to Example 2 and the physical characteristics of the resulting LNPs were analyzed.
In a separate experiment, LNP compositions of the present disclosure comprising mRNA encoding firefly luciferase (hereafter “Fluc”; TriLink) and COMPOUNDS 1-8 were prepared as described in Example 2 by combining one of COMPOUNDS 1-8, the phospholipid DOPE, the structural lipid cholesterol (Chol) and 1,2-dimyristoyl-sn-glycerol methoxypolyethylene glycol (DMG-PEG2000) in the percentages presented in Table 8: […]

[3] = Physical characterisation of DNA-containing LNPs (DLS, NTA, zeta potential); format: physicochemical; conditions: nano-pB-EF1a-GFP DNA LNPs: compound/DOPE/Cholesterol/DMG-PEG2000 38.0/50.0/10.0/2.0, lipid:DNA 45:1 (w/w)
Description: LNP compositions of the present disclosure comprising DNA, a nanoplasmid encoding a piggyBac transposon, wherein the piggyBac transposon comprised GFP under control of the EF1a promoter (herein referred to as the nano-pB-EF1a-GFP), and one of COMPOUNDS 1-8 were prepared as described in Example 3 by combining one of COMPOUNDS 1-8, the phospholipid DOPE, the structural lipid cholesterol (Chol) and 1,2-dimyristoyl-sn-glycerol methoxypolyethylene glycol (DMG-PEG2000) in the following percentages in Table 20: […]

BALB/C mice = test: In vivo intramuscular LNP delivery of fLuciferase mRNA, bioluminescent imaging; conditions: intramuscular 20 μg fLuciferase mRNA, right hind limb, BLI at 4 hr; LNP compound/DOPE/Cholesterol/DMG-PEG2000 33.5/32.0/33.5/1.0, lipid:RNA 25:1
Description: (§4) Adult female BALB/C mice (n=2/group) were intramuscularly administered in the right hind limb of each mouse 20 μg of 5′-CleanCap-fLuciferase mRNA (TriLink Biotech) formulated with LNP composition comprising COMPOUND 2 as prepared according to Example 2 in the following percentages shown in Table 16:
The location and extent of luciferase expression in treated and untreated mice were determined at 4 hr and 24 hr by bioluminescent imaging (BLI) of anesthetized mice using an IVIS Lumina in vivo imaging system (Perkin Elmer) according to the manufacturer's instructions. Briefly, mice were anesthetized using isoflurane in oxygen, and placed supine on a heated stage. Mice were then administered D-luciferin (Perkin-Elmer #122799) IP, and BLI was performed.
as §4, with “In another experiment, adult female” for “Adult female”, “comprising one of COMPOUNDS 3-8” for “comprising COMPOUND 2”, “Example 3” for “Example 2”, “Table 18:” for “Table 16:”
The location and extent of luciferase expression in treated and untreated mice were determined at 4 hr by bioluminescent imaging (BLI) of anesthetized mice as described above.

| SMILES | PDI DNA [1] | Particle Size (nm) DNA [1] | PDI RNA [1] | Particle Size (nm) RNA [1] | further results |
| --- | --- | --- | --- | --- | --- |
| CC(C)C(CCC(C)C(CCC1CCC(C(=O)OCCCCCCCCCCCCOC(=O)C2CCC(CCC(SCCN(C)C)C(C)CCC(SCCN(C)C)C(C)C)C(SCCN(C)C)C2)CC1SCCN(C)C)SCCN(C)C)SCCN(C)C (stereo not shown) [Compound 11] | 0.366 | 511.8 nm | 0.156 | 270.4 nm | – |
| CC(C)C(CCC1CCC(C(=O)OCCCCCCOC(=O)C2CCC(CCC(SCCN(C)C)C(C)C)C(SCCN(C)C)C2)CC1SCCN(C)C)SCCN(C)C (stereo not shown) [Compound 14] | 0.272 | 392.2 nm | 0.249 | 222.5 nm | – |
| CC(C)C(CCC(C)C(CCC1CCC(C(=O)NC2CCC(CC3CCC(NC(=O)C4CCC(CCC(SCCN(C)C)C(C)CCC(SCCN(C)C)C(C)C)C(SCCN(C)C)C4)CC3)CC2)CC1SCCN(C)C)SCCN(C)C)SCCN(C)C (stereo not shown) [Compound 5] | – | – | – | – | Diameter (DLS; nm) [2]: 91.8 nm; Diameter (NTA; nm) [2]: 84.4 nm; PDI [2]: 0.389; Total Particles/ml [2]: 7.03E+10 Particles/ml; Zeta Potential (mV) [2]: 0.18 mV; Diameter (DLS; nm) [3]: 82.0 nm; Diameter (NTA; nm) [3]: 85.8 nm; PDI [3]: 0.168; Total Particles/ml [3]: 2.31E+11 Particles/ml; Zeta Potential (mV) [3]: 0.21 mV; Avg IM flux n = 2 (BALB/C mice): 2.12E+5 |
| CC(C)C(CCC(C)C(CCC1CCC(C(=O)OCCCCCCSCCCCCCCCSCCCCCCOC(=O)C2CCC(CCC(SCCN(C)C)C(C)CCC(SCCN(C)C)C(C)C)C(SCCN(C)C)C2)CC1SCCN(C)C)SCCN(C)C)SCCN(C)C (stereo not shown) [Compound 20] | 0.189 | 229.6 nm | 0.211 | 221.0 nm | – |
| CC(C)C(CCC1CCC(C(=O)OCCCCCCSCCCCCCCCSCCCCCCOC(=O)C2CCC(CCC(SCCN(C)C)C(C)C)C(SCCN(C)C)C2)CC1SCCN(C)C)SCCN(C)C (stereo not shown) [Compound 21] | 0.230 | 161.1 nm | 0.273 | 144.9 nm | – |
| CC(C)C(CCC1CCC(C(=O)OCCCCCCCCCCCCCCCCCCCCOC(=O)C2CCC(CCC(SCCN(C)C)C(C)C)C(SCCN(C)C)C2)CC1SCCN(C)C)SCCN(C)C (stereo not shown) [Compound 16] | 0.277 | 149.8 nm | 0.327 | 188.8 nm | – |
| CC(C)C(CCC(C)C(CCC1CC2C(=O)N(c3ccc(N4C(=O)C5CC(CCC(SCCN(C)C)C(C)CCC(SCCN(C)C)C(C)C)C(SCCN(C)C)CC5C4=O)cc3)C(=O)C2CC1SCCN(C)C)SCCN(C)C)SCCN(C)C (stereo not shown) [Compound 7] | – | – | – | – | Diameter (DLS; nm) [2]: 123.5 nm; Diameter (NTA; nm) [2]: 108.4 nm; PDI [2]: 0.113; Total Particles/ml [2]: 5.10E+10 Particles/ml; Zeta Potential (mV) [2]: −0.29 mV; Diameter (DLS; nm) [3]: 110.2 nm; Diameter (NTA; nm) [3]: 90.8 nm; PDI [3]: 0.224; Total Particles/ml [3]: 5.52E+11 Particles/ml; Zeta Potential (mV) [3]: 0.96 mV; Avg IM flux n = 2 (BALB/C mice): 2.4E+5 |
| CC(C)C(CCC(C)C(CCC1CCC(C(=O)OCCCCCCOC(=O)C2CCC(CCC(SCCN(C)C)C(C)CCC(SCCN(C)C)C(C)C)C(SCCN(C)C)C2)CC1SCCN(C)C)SCCN(C)C)SCCN(C)C (stereo not shown) [Compound 10] | 0.403 | 291.2 nm | 0.120 | 254.1 nm | – |
| CC(C)C(CCC1CCC(C(=O)OCCCCCCCCCCCCOC(=O)C2CCC(CCC(SCCN(C)C)C(C)C)C(SCCN(C)C)C2)CC1SCCN(C)C)SCCN(C)C (stereo not shown) [Compound 15] | 0.201 | 375.6 nm | 0.208 | 267.1 nm | – |
| CC(C)C(CCC(C)C(CCC1CCC(C(=O)OCCCCCCCCCCCCCCCCCCCCOC(=O)C2CCC(CCC(SCCN(C)C)C(C)CCC(SCCN(C)C)C(C)C)C(SCCN(C)C)C2)CC1SCCN(C)C)SCCN(C)C)SCCN(C)C (stereo not shown) [Compound 12] | 0.251 | 228.0 nm | 0.216 | 162.7 nm | – |
| CC(C)C(CCC1CC2C(=O)N(c3ccc(N4C(=O)C5CC(CCC(SCCN(C)C)C(C)C)C(SCCN(C)C)CC5C4=O)cc3)C(=O)C2CC1SCCN(C)C)SCCN(C)C (stereo not shown) [Compound 8] | – | – | – | – | Avg IM flux n = 2 (BALB/C mice): 8.31E+4 |
